Data: US20150250883A1, “COMPOSITIONS AND METHODS TO IMPROVE THE HOMING AND GRAFTING OF HEMATOPOETIC STEM CELLS” (7 HILLS PHARMA, LLC, priority 2014, published 2015)

Legend:
[1] = system: TF-1 cells on immobilized recombinant human VCAM-1; settings: interpretation of cited detachment assay data; cited from earlier work
[2] = system: Jurkat cells (integrin expressing) adhering to immobilized CS1-BSA; assay: Static adhesion of integrin expressing cells to an immobilized integrin ligand; format: cell-based
Method: The effective concentration of a representative agonist compound, THI0019, in a cell carrier was evaluated by a static adhesion of integrin expressing cells to an immobilized integrin ligand in vitro, as described below.
The effective concentration of THI0019, a representative agonist compound used in this example, was evaluated by a static adhesion of integrin expressing cells to an immobilized integrin ligand. The 25 amino acid alternatively spliced sequence of fibronectin named connecting segment 1 (CS1) was synthesized and conjugated to BSA. CS1-BSA at 0.3 μg/mL in 50 μL of a representative cell carrier was added to wells of a 96-well plate and allowed to coat overnight at 4° C. The representative cell carrier is isotonic Tris Buffered Saline comprising 50 mM Tris-HCl (pH 7.4), 150 mM NaCl and 1 mM MgCl2 and is a model isotonic buffer. Plates were washed with the cell carrier and blocked with 2 wt. % BSA for 1 h. 32×10^6 of Jurkat cells were labeled for 30 minutes with calcein-AM (Molecular Probes), washed 2 times with the cell carrier, resuspended in 8 mL of the cell carrier, and divided equally between two tubes. One tube of the cell suspension was treated with 40 μL DMSO (control) and the other with 40 μL of 1 mM THI0019 in DMSO. The control containing tube and the THI0019 containing tube were each further divided equally among four eppendorf tubes (Tubes 1-4 for each group) such that each contained 4×10^6 of the cells in 1 mL of the control or the THI0019 containing cell carrier. Tube 1 from each group was not further processed (“no treatment”). Tubes 2-4 were centrifuged at 100×G for 5 min at RT. The supernatant was carefully removed with a pipet and each cell pellet was resuspended in 1 mL of the cell carrier without the agonist compound. Tube 2 was not further processed (“pellet”). Tubes 3-4 were again centrifuged at 100×G for 5 min. The supernatant was carefully removed with a pipet and each cell pellet was resuspended in 1 mL of the cell carrier without the agonist compound. Tube 3 was not further processed (“1 wash”). Tube 4 was again centrifuged at 100×G for 5 min. The supernatant was carefully removed with a pipet and the cell pellet was resuspended in 1 mL of the cell carrier without the agonist compound. Tube 4 was not further processed (“2 wash”). The final concentrations of THI0019 in the respective cell carriers for no treatment, pellet, 1 wash, and 2 wash were 10 μM, […]. […] After 30-minute incubation at 37° C., the plates were washed 3 times with binding cell carrier, the adherent cells were lysed, and fluorescence was measured on a Tecan Safire plate reader. The number of cells bound was determined by standard curves correlating fluorescence to cell number generated with the same mixtures used for the assay.

[3] = static adhesion, FIG. 1, printed as 'at least 1 femtomolar (fM) to 1 μM'

CCCC[C@@H](COC(=O)N(Cc1cccs1)Cc1cccs1)NC(=O)N[C@@H](CC(=O)OC)c1ccc2c(c1)OCO2 [THI0019, methyl (6S,10S)-10-(1,3-benzodioxol-5-yl)-6-butyl-3,8-dioxo-1-(2-thienyl)-2-(2-thienylmethyl)-4-oxa-2,7,9-triazadodecan-12-oate]
effect on VCAM-1 / VLA-4 interaction (applicant's reading of Vanderslice data) [1]: stabilizes the VCAM-1 and VLA-4 interaction and upon endogenous ligand binding, the compound is displaced | ability of agonist treated cells to bind to a cognate ligand after exposure ([2]; after exposure to the agonist in cell carrier): enhanced ability to bind to a cognate ligand within minutes | adhesion potential of cells after dilution/washing of compound from cell carrier ([2]; compound reduced by multiple 1000-fold serial dilutions to as low as 1 fM in cell carrier): retained the ability to exhibit enhanced adhesion potential | effective amount of the agonist compound present in the cell carrier, lower end of range [2, 3]: 1 fM | effective amount of the agonist compound present in the cell carrier, upper end of range [2, 3]: 1 µM
